Laboratory results reported in US8957093B2, “N-biphenylmethylindole modulators of PPARG” (The Scripps Research Institute, priority 2011, dated 2015).
Like-named read-outs stand apart in the source and are kept apart here.

Columns and labels:
GST-PPARG-LBD = GST-PPARG-LBD (Homo sapiens (Human), UniProt P37231); assay: Lanthascreen PPARG competitive binding assay (Invitrogen, TR-FRET); conditions: Lanthascreen competitive binding; NA = not active; inc = incomplete curve; read-out: IC50 (nM) Lantha
Summary of the method: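 Values are fold change in 520 nm/490 nm FRET ratio relative to a 2% DMSO no-ligand control, excitation 340 nm. Compound dilutions starting at 10 μM competed against 5 nM Fluormone Pan-PPAR Green for GST-PPARG-LBD bound by 5 nM Tb anti-GST antibody. Incubation 2 h in the dark in assay buffer C, triplicate wells.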

[1] = biological target: Gal-4-PPAR (human PPAR LBD fused to GAL4 DNA-binding domain) (Homo sapiens (Human), UniProt P37231); assay: GAL4-PPARG LBD / UAS-luciferase transactivation assay in HEK 293T cells; assay type: cell-based
[2] = GAL4 transactivation, HEK 293T cells; NA = not active; read-out: EC50 (nM) GAL4
[3] = HEK-293T, 18 h, read-out: % transactivation at 10 μM (GAL4)
[4] = HEK-293T, 18 h; read-out: % transactivation at 10 μM (GAL4)

Chain of GST-PPARG-LBD (P37231 238-503): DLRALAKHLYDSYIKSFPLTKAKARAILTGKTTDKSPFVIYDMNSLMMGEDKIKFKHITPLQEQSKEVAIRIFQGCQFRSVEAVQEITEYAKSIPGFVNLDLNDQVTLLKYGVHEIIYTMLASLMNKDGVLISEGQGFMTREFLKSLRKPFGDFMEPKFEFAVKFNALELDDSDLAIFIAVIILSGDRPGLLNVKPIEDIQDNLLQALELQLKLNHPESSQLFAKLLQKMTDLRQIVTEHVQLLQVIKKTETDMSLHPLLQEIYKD
Chain of Gal-4-PPAR (human PPAR LBD fused to GAL4 DNA-binding domain) (P37231 238-503): as above

SMILES	IC50 (GST-PPARG-LBD) [nM]	EC50 [1, 2] [nM]	activation at 10 µM [1, 3] [%]	activation at 10 µM [1, 4] [%]
Cc1c(C)n(Cc2ccc(-c3ccccc3C(=O)O)cc2)c2ccc(C(=O)N[C@H](C)c3cccc(Cl)c3Cl)cc12 [Example 171, (R)-4′-((5-((1-(2,3-dichlorophenyl)ethyl)carbamoyl)-2,3-dimethyl-1H-indol-1-yl)methyl)-[1,1′-biphenyl]-2-carboxylic acid]	5	388	10	–
Cc1c(C)n(Cc2ccc(-c3ccccc3C(=O)O)cc2)c2ccc(C(=O)N[C@@H](C)c3cc(C(F)(F)F)ccc3C(F)(F)F)cc12 [Example 172, (S)-4′-((5-((1-(2,5-bis(trifluoromethyl)phenyl)ethyl)carbamoyl)-2,3-dimethyl-1H-indol-1-yl)methyl)-[1,1′-biphenyl]-2-carboxylic acid]	9	106	–	8
Cc1c(C)n(Cc2ccc(-c3ccccc3C(=O)O)cc2)c2ccc(C(=O)N[C@H](C)c3cc(C(F)(F)F)ccc3C(F)(F)F)cc12 [Example 173, (R)-4′-((5-((1-(2,5-bis(trifluoromethyl)phenyl)ethyl)carbamoyl)-2,3-dimethyl-1H-indol-1-yl)methyl)-[1,1′-biphenyl]-2-carboxylic acid]	4	161	–	1
COc1ccccc1[C@H](C)NC(=O)c1ccc2c(c1)c(C)c(C)n2Cc1ccc(-c2ccccc2C(=O)O)cc1 [Example 175, (S)-4′-((5-((1-(2-methoxyphenyl)ethyl)carbamoyl)-2,3-dimethyl-1H-indol-1-yl)methyl)-[1,1′-biphenyl]-2-carboxylic acid]	16	360	–	20
Cc1c(C)n(Cc2ccc(-c3ccccc3C(=O)O)cc2)c2ccc(C(=O)NC(C)(C)c3ccc(Br)cc3)cc12 [Example 180, 4′-((5-((2-(4-bromophenyl)propan-2-yl)carbamoyl)-2,3-dimethyl-1H-indol-1-yl)methyl)-[1,1′-biphenyl]-2-carboxylic acid]	1	119	60	–
Cc1c(C)n(Cc2ccc(-c3ccccc3C(=O)O)cc2)c2ccc(C(=O)N[C@H](C)c3ccnc4ccccc34)cc12 [Example 181, (R)-4′-((2,3-dimethyl-5-((1-(quinolin-4-yl)ethyl)carbamoyl)-1H-indol-1-yl)methyl)-[1,1′-biphenyl]-2-carboxylic acid]	512	5240	–	40
Cc1c(C)n(Cc2ccc(-c3ccccc3-c3nnn[nH]3)cc2)c2ccc(C(=O)N[C@H](C)c3cccc(Br)c3)cc12 [Example 187, (R)-1-((2′-(1H-tetrazol-5-yl)-[1,1′-biphenyl]-4-yl)methyl)-N-(1-(3-bromophenyl)ethyl)-2,3-dimethyl-1H-indole-5-carboxamide]	< 1	5	–	20
Cc1c(C)n(Cc2ccc(-c3ccccc3-c3nnn[nH]3)cc2)c2ccc(C(=O)N[C@@H](C)c3cccc(C4CC4)c3)cc12 [Example 188, (S)-1-((2′-(1H-tetrazol-5-yl)-[1,1′-biphenyl]-4-yl)methyl)-N-(1-(3-cyclopropylphenyl)ethyl)-2,3-dimethyl-1H-indole-5-carboxamide]	10	3150	–	20
CC[C@@H](NC(=O)c1ccc2c(ccn2Cc2ccccc2-c2ccc(C(=O)O)cc2)c1)c1ccccc1 [Example 190, (R)-2′-((5-((1-phenylpropyl)carbamoyl)-1H-indol-1-yl)methyl)-[1,1′-biphenyl]-4-carboxylic acid]	5	51	–	45
CC[C@H](NC(=O)c1ccc2c(ccn2Cc2ccccc2-c2cccc(C(=O)O)c2)c1)c1ccccc1 [Example 191, (S)-2′-((5-((1-phenylpropyl)carbamoyl)-1H-indol-1-yl)methyl)-[1,1′-biphenyl]-3-carboxylic acid]	80	1000	–	20
CC[C@@H](NC(=O)c1ccc2c(ccn2Cc2ccccc2-c2cccc(C(=O)O)c2)c1)c1ccccc1 [Example 192, (R)-2′-((5-((1-phenylpropyl)carbamoyl)-1H-indol-1-yl)methyl)-[1,1′-biphenyl]-3-carboxylic acid]	4	27	–	40
COc1ccc([C@H](C)NC(=O)c2ccc3c(c2)c(C)c(C)n3Cc2ccc(-c3ccccc3C(=O)O)cc2)cc1Cl [Example 197, (S)-4′-((5-((1-(3-chloro-4-methoxyphenyl)ethyl)carbamoyl)-2,3-dimethyl-1H-indol-1-yl)methyl)-[1,1′-biphenyl]-2-carboxylic acid]	17	1630	–	20
Cc1c(C)n(Cc2ccc(-c3ccccc3C(=O)O)cc2)c2ccc(C(=O)N[C@@H](C)C3CCN(C(=O)OCc4ccccc4)CC3)cc12 [Example 202, (S)-4′-((5-((1-(1-((benzyloxy)carbonyl)piperidin-4-yl)ethyl)carbamoyl)-2,3-dimethyl-1H-indol-1-yl)methyl)-[1,1′-biphenyl]-2-carboxylic acid]	35	1750	–	40
COc1ccc(F)cc1[C@@H](C)NC(=O)c1ccc2c(c1)c(C)c(C)n2Cc1ccc(-c2ccccc2C(=O)O)cc1 [Example 205, (R)-4′-((5-((1-(5-fluoro-2-methoxyphenyl)ethyl)carbamoyl)-2,3-dimethyl-1H-indol-1-yl)methyl)-[1,1′-biphenyl]-2-carboxylic acid]	5	637	–	20
COc1ccc(F)cc1[C@H](C)NC(=O)c1ccc2c(c1)c(C)c(C)n2Cc1ccc(-c2ccccc2C(=O)O)cc1 [Example 206, (S)-4′-((5-((1-(5-fluoro-2-methoxyphenyl)ethyl)carbamoyl)-2,3-dimethyl-1H-indol-1-yl)methyl)-[1,1′-biphenyl]-2-carboxylic acid]	26	405	–	20
Cc1c(C)n(Cc2ccc(-c3ccccc3C(=O)O)cc2)c2ccc(C(=O)N[C@H](C)c3ccccc3C(F)(F)F)cc12 [Example 207, (R)-4′-((2,3-dimethyl-5-((1-(2-(trifluoromethyl)phenyl)ethyl)carbamoyl)-1H-indol-1-yl)methyl)-[1,1′-biphenyl]-2-carboxylic acid]	1	629	–	20
Cc1c(C)n(Cc2ccc(-c3ccccc3C(=O)O)cc2)c2ccc(C(=O)N[C@@H](C)c3ccccc3C(F)(F)F)cc12 [Example 208, (S)-4′-((2,3-dimethyl-5-((1-(2-(trifluoromethyl)phenyl)ethyl)carbamoyl)-1H-indol-1-yl)methyl)-[1,1′-biphenyl]-2-carboxylic acid]	22	369	–	20
Cc1c(C)n(Cc2ccc(-c3ccccc3C(=O)O)cc2)c2ccc(C(=O)N[C@H](C)c3ccc(C(F)(F)F)cc3C(F)(F)F)cc12 [Example 209, (R)-4′-((5-((1-(2,4-bis(trifluoromethyl)phenyl)ethyl)carbamoyl)-2,3-dimethyl-1H-indol-1-yl)methyl)-[1,1′-biphenyl]-2-carboxylic acid]	11	211	–	10
Cc1c(C)n(Cc2ccc(-c3ccccc3C(=O)O)cc2)c2ccc(C(=O)N[C@@H](C)c3ccc(C(F)(F)F)cc3C(F)(F)F)cc12 [Example 210, (S)-4′-((5-((1-(2,4-bis(trifluoromethyl)phenyl)ethyl)carbamoyl)-2,3-dimethyl-1H-indol-1-yl)methyl)-[1,1′-biphenyl]-2-carboxylic acid]	241	1290	–	20
Cc1ccc(F)c([C@H](C)NC(=O)c2ccc3c(c2)c(C)c(C)n3Cc2ccc(-c3ccccc3C(=O)O)cc2)c1 [Example 211, (S)-4′-((5-((1-(2-fluoro-5-methylphenyl)ethyl)carbamoyl)-2,3-dimethyl-1H-indol-1-yl)methyl)-[1,1′-biphenyl]-2-carboxylic acid]	6	251	–	20
Cc1c(C)n(Cc2ccc(-c3ccccc3C(=O)O)cc2)c2ccc(C(=O)N[C@@H](C)C3CCCCC3)cc12 [Example 212, (S)-4′-((5-((1-cyclohexylethyl)carbamoyl)-2,3-dimethyl-1H-indol-1-yl)methyl)-[1,1′-biphenyl]-2-carboxylic acid]	4	209	–	20
Cc1c(C)n(Cc2ccc(-c3ccccc3C(=O)O)cc2)c2ccc(C(=O)N[C@H](C)C3COc4ccccc4O3)cc12 (stereo partly drawn) [Example 213, 4′-((5-(((1R)-1-(2,3-dihydrobenzo[b][1,4]dioxin-2-yl)ethyl)carbamoyl)-2,3-dimethyl-1H-indol-1-yl)methyl)-[1,1′-biphenyl]-2-carboxylic acid]	3	672	–	40
Cc1c(C)n(Cc2ccc(-c3ccccc3C(=O)O)cc2)c2ccc(C(=O)N[C@@H](C)C3COc4ccccc4O3)cc12 (stereo partly drawn) [Example 214, 4′-((5-(((1S)-1-(2,3-dihydrobenzo[b][1,4]dioxin-2-yl)ethyl)carbamoyl)-2,3-dimethyl-1H-indol-1-yl)methyl)-[1,1′-biphenyl]-2-carboxylic acid]	25	2350	–	20
